Measurements: patent US20120010178A1, “METHODS AND COMPOUNDS FOR TREATMENT OF NEURODEGENERATIVE DISORDERS” (PRESIDENT AND FELLOWS OF HARVARD COLLEGE, priority 2008, published 2012)
Entries after “also recorded” stand apart in the source; their conditions may differ.

Tests used:
[1] = tested on: SMN; experiment: SMN immunofluorescence quantification (cytoplasm, nucleus, GEMs) in fibroblasts from SMA patients; format: cell-based, human; conditions: for Avg. SMN fold increase: human PDGF isoforms; for Avg. SMN fold increase / levels of cytoplasmic and nuclear SMN (in words): SMA patient fibroblasts; for levels of cytoplasmic and nuclear SMN (in words): substance alone; for decrease of basal level of SMN: added to the regular serum media in which cells are maintained, no added PDGF
Procedure: Specifically, fibroblasts from patients suffering from SMA were treated with Ionomycin (a channel modulator), Ouabain (a cardiac glycoside and channel modulator), PDGF, SAHA (an HDAC inhibitor), Lactacystin (a proteasome inhibitor) or WIN 55,212-2 (a cannabinoid receptor […] and GPCR ligand) for 72 hours. The cells were fixed with methanol/acetone and stained with Pharmingen BD antibodies, followed by 488 AlexaFluor staining. Images were obtained with 60× lens on Zeiss LSM510 META on an inverted confocal microscope.
For example, fibroblasts from patients suffering from SMA were treated with Ouabain, Digoxin or Lanatoside at a concentration of 0, 2.5 nM, 5 nM, 10 nM, 20 nM, 40 nM, 80 nM, […] for 72 hours. The cells were fixed with methanol/acetone and stained with Pharmingen BD antibodies, followed by 488 AlexaFluor staining. Images were obtained with 60× lens on Zeiss LSM510 META on an inverted confocal microscope.
An assay was established for high-content evaluation of SMN protein level in different cellular compartments after treatment with small molecules. SMN protein was visualized by immunofluorescent staining and multiple fields from each plate well were scanned by an automated confocal Opera microscope. […] For each well, the algorithm generated quantitative parameters representing number of cells, as well as SMN fluorescent intensity per cell in cytoplasm, nucleus, number and intensity of GEMs (FIG. 15). […] During the assay transfer to the robotic platform fixation with the ice cold methanol was technically limited, therefore to preserve the maximum possible window we chose to perform the screen on parental fibroblast with PFA fixation.
For fibroblast assays, human fibroblasts lines GM09677 (derived from patient with SMA type 1 disease) and GM03814 (derived from unaffected parental SMA carriers) were used (Coriell Cell Repositories). […] For secondary assays cells from GM09677 line were used.
Fibroblasts were grown in MEM media (Invitrogen) supplemented with 5% Fetal Bovine Serum (FBS, Invitrogen), 2 mM glutamine and 1% penicillin-streptomycin (100 U/ml) in a presence of 5% CO2 at 37° C. For drug treatments, cells were plated and treated 24 h later with 10 μM MG132 (Biomol International), […] Calpeptin (Biomol International), 10 mM ammonium chloride, 1 μM myristoylated PKI, or vehicle for the designated times.
(§1) Compounds were stored at appropriate temperature and dissolved accordingly to the manufacturers (Tocris, Enzo, EMD and Sigma-Aldrich) in DMSO (Sigma-Aldrich), unless stated otherwise (Monensin Na in EtOH, DMPQ in water). Growth factors and PDGF neutralizing antibodies (R&D Systems) were reconstituted with buffers recommended by the supplier. For generation of the dose curves, 1×10^3 fibroblasts were plated on to 96-well Greiner Senso plates (VWR) and treated with compounds on the second day then fixed and stained at the indicated time points. For GSK inhibitors and performing p-GSK3b(Ser9) detection, two days after plating growth media containing 5% FBS was replaced to the media with FBS reduced down to 0.5%, to starve cells for 72 hours. Addition of the GSK inhibitors was done in 5% FBS enriched media.

[2] = tested on: SMN; experiment: Inhibition of PDGF-stimulated SMN increase in fibroblasts by kinase/receptor inhibitors; format: cell-based, human; conditions: for SMN Cytoplam (inhibition of PDGF-stimulated SMN increase) / SMN GEM Intensity (inhibition of PDGF-stimulated SMN increase) / SMN Nuclear (inhibition of PDGF-stimulated SMN increase): inhibitor at the concentration (nM), fibroblast stimulation with PDGF; for PDGF-stimulated SMN increase in presence of inhibitor (in words): SMA patient fibroblasts, PDGF plus inhibitor or neutralizing antibody; for Cell Number (affected by inhibitor): inhibitor at the concentration of the table row, PDGF stimulated fibroblasts; for PDGF-stimulated SMN increase in the cytoplasm in presence of inhibitor (in words) / PDGF-stimulated SMN increase in the nucleus in presence of inhibitor (in words): pre-treatment with p38 inhibitor
Procedure: Fibroblasts from patients suffering from SMA were treated with PDGF at a concentration of 0, 0.3 ng/ml, 0.63 ng/ml, 1.25 ng/ml, 2.5 ng/ml, 5 ng/ml, 10 ng/ml or 20 ng/ml, in the absence or in the presence of 25 uM DMPQ or 25 uM AG-1296 respectively for 72 hours. The levels of both cytoplasmic and nuclear SMN were detected and quantified using the method described in Example 2.
(§2) Fibroblasts from patients suffering from SMA were either control treated or treated with PDGF at a concentration of 0, 0.63 ng/ml, 1.25 ng/ml, 2.5 ng/ml, 5 ng/ml, 10 ng/ml or 20 ng/ml, in the absence or in the presence of 50 uM LY294002 or 2 uM P1-103 respectively for 72 hours. The levels of both cytoplasmic and nuclear SMN were detected and quantified using the method described in Example 2.
as §2, with “of” for “of 50 uM LY294002 or”, “uM Papamycin” for “uM P1-103 respectively”, “Example x.” for “Example 2.”
A range of concentrations were tested in order not to miss the effects. SMN level were evaluated by Opera Evoteck in each cellular compartment and to assess the cell numbers that are summarized in the Table 3.
as §1, with “media. As previously described, starvation increases levels of constitutively activate GSK3b kinase, allowing to achieve a more dramatic inhibitory effect when GSK inhibitors are added together with growth factors that are also known to inhibit GSK by Ser-9 phosphorylation. […] For all compounds and growth factors control wells received solvent in amount equivalent to the highest concentration of the compound in a dose curve. For PDGF inhibitory studies, cells were pre-treated with kinase inhibitors for 2 hours and PDGF was added with a fresh kinase inhibitor solution and incubated for an additional 3 days.” for “media.”

Molecule | levels of cytoplasmic and nuclear SMN (in words) [1] | SMN Cytoplam (inhibition of PDGF-stimulated SMN increase) [2] | SMN GEM Intensity (inhibition of PDGF-stimulated SMN increase) [2] | SMN Nuclear (inhibition of PDGF-stimulated SMN increase) [2] | other results
PDGF-AA rec.: recombinant PDGF-AA |  |  |  |  | Avg. SMN fold increase [1]: 1.3-1.4 fold
CC(=O)C1=C(O)[C@@H]2[C@H]3c4c[nH]c5cccc(c45)C[C@H]3C(C)(C)N2C1=O [Cyclopiazonic acid] | not active |  |  |  | 
CO[C@H]1C[C@@H]2CC[C@@H](C)[C@@](O)(O2)C(=O)C(=O)N2CCCC[C@H]2C(=O)O[C@H]([C@H](C)C[C@@H]2CC[C@@H](O)[C@H](OC)C2)CC(=O)[C@H](C)/C=C(\C)[C@@H](O)[C@@H](OC)C(=O)[C@H](C)C[C@H](C)/C=C/C=C/C=C/1C [Rapamycin] |  | 80% | 80-100% | 80-100% | 
N#CC(=C(/N)Sc1ccccc1N)/C(C#N)=C(\N)Sc1ccccc1N [U0126] |  | 20-30% ^ | 10% | 10% | PDGF-stimulated SMN increase in presence of inhibitor (in words) [2]: only partially inhibited; Cell Number (affected by inhibitor) [2]: No
COC(=O)C1=C(C)NC(C)=C([N+](=O)[O-])C1c1ccccc1C(F)(F)F (stereo not shown) [Bay K8644] | not active |  |  |  | 
Cc1c[nH]c(-c2cnc(NCCNc3ccc(C#N)cn3)nc2-c2ccc(Cl)cc2Cl)n1 [CHIR99021] | increase SMN levels; also recorded: Most active compounds |  |  |  | 
COc1cccc(-c2cc(=O)c3ccccc3o2)c1N [PD98059] |  | 20% | 20% | 20% | PDGF-stimulated SMN increase in presence of inhibitor (in words) [2]: only partially inhibited; Cell Number (affected by inhibitor) [2]: Yes
CC(=O)O[C@@H]1[C@@H](OC(C)=O)[C@@H](O)[C@H](Oc2c(-c3ccc(O)cc3)oc3cc(O)cc(O)c3c2=O)O[C@H]1C [SL-0101] |  | 20% | 20% | 20% | PDGF-stimulated SMN increase in presence of inhibitor (in words) [2]: didn't have an inhibitory effect
DMSO |  |  |  |  | decrease of basal level of SMN [1]: 20%
FGF2: fibroblast growth factor, RTK ligand | increases SMN levels |  |  |  | levels of cytoplasmic and nuclear SMN (in words) ([1]; listed as bFGF): active
Oc1ccc(-c2nc(-c3ccc(F)cc3)c(-c3ccncc3)[nH]2)cc1 [SB202190] |  | 20% | some | 0% | Cell Number (affected by inhibitor) [2]: Yes; PDGF-stimulated SMN increase in the cytoplasm in presence of inhibitor (in words) [2]: able to prevent SMN increase induced by PDGF; also recorded: partial inhibition of SMN in the cytoplasm; PDGF-stimulated SMN increase in the nucleus in presence of inhibitor (in words) [2]: not in the nucleus; also recorded: leaving nuclear SMN unaffected
C[S+]([O-])c1ccc(-c2nc(-c3ccc(F)cc3)c(-c3ccncc3)[nH]2)cc1 (stereo not shown) [SB203580, 4-(4-Fluorophenyl)-2-(4-methylsulfinylphenyl)-5-(4-pyridyl)-1H-imidazole] |  | 20% | some | 0% | Cell Number (affected by inhibitor) [2]: Yes; PDGF-stimulated SMN increase in the cytoplasm in presence of inhibitor (in words) [2]: able to prevent SMN increase induced by PDGF; also recorded: partial inhibition of SMN in the cytoplasm; PDGF-stimulated SMN increase in the nucleus in presence of inhibitor (in words) [2]: not in the nucleus; also recorded: leaving nuclear SMN unaffected
O=c1cc(N2CCOCC2)oc2c(-c3ccccc3)cccc12 [LY294002] |  | 100% | 100% | 100% | decrease of basal level of SMN [1]: 40%; reduction of SMN ([1]; combinatory treatment of 0.5% serum and PI-3 kinase inhibitor, patient cells): 20%
PDGF-AB rec.: recombinant PDGF-AB |  |  |  |  | Avg. SMN fold increase [1]: 1.7-1.9 fold
Ryanodine | weak effect |  |  |  | 
